Calls of active or inactive are those of the source. No cut-off for these calls is given here.
Experiments:
[1] = system: BMMC; experiment: Cytotoxicity against C57BL/6J mouse BMMC upto 20 uM incubated for 4 days by CCK-8 assay; type: toxicity, cell-based; conditions: 96 h, time 4 day
[2] = system: BMMC; experiment: Inhibition of osteoclast differentiation in M-CSF/RANKL induced C57BL/6J mouse BMMC at 10 uM medium changed every other day and measured after 7 days by TRAP staining based assay; type: functional, cell-based; conditions: time 7.0 day
[3] = system: BMMC; experiment: Inhibition of F-actin ring formation in RANKL induced C57BL/6J mouse BMMC at 5 to 10 uM medium changed every other day by Hoechst 33342 and TRITC-labeled phalloidin staining based assay; type: functional, cell-based; conditions: dose 5-10 µM
[4] = system: BMMC; experiment: Inhibition of bone resorption in RANKL induced C57BL/6J mouse BMMC at 5 to 10 uM by Cytation-5 staining based assay; type: functional, cell-based; conditions: dose 5-10 µM

Substance	Activity [1]	further results
Ac-DPHRLLQQLVLSGNLIKEAVRRLHSA-NH2	Non-Toxic	–
Ac-DPHRLLQQLVLSGNLIKEAVRRLHAR-NH2	Non-Toxic	–
Ac-DPHRLAQQLVLSGNLIKEAVRRLHSR-NH2	Non-Toxic	inhibition [2]: Active
Ac-DPHRLLQQLVLSGNLIKEAVRRAHSR-NH2	Non-Toxic	–
Ac-DPHRLLQQLVLSANLIKEAVRRLHSR-NH2	Non-Toxic	inhibition [2]: Active; inhibition [3]: Active; inhibition [4]: Active
Ac-DPHRLLAQLVLSGNLIKEAVRRLHSR-NH2	Non-Toxic	–
Ac-DPHRLLQQAVLSGNLIKEAVRRLHSR-NH2	Non-Toxic	–
Ac-DPHRALQQLVLSGNLIKEAVRRLHSR-NH2	Non-Toxic	–
Ac-DPHRLLQQLVLSGNLIKAAVRRLHSR-NH2	Non-Toxic	–
Ac-DPHALLQQLVLSGNLIKEAVRRLHSR-NH2	Non-Toxic	–
Ac-DPHRLLQQLVLSGNLIKEAVRRLASR-NH2	Non-Toxic	–
Ac-DPARLLQQLVLSGNLIKEAVRRLHSR-NH2	Non-Toxic	–
Ac-DPHRLLQQLVLSGNLAKEAVRRLHSR-NH2	Non-Toxic	–
Ac-DPHRLLQALVLSGNLIKEAVRRLHSR-NH2	Non-Toxic	–
Ac-DAHRLLQQLVLSGNLIKEAVRRLHSR-NH2	Non-Toxic	–
Ac-DPHRLLQQLVASGNLIKEAVRRLHSR-NH2	Non-Toxic	–
Ac-DPHRLLQQLVLSGNLIKEAARRLHSR-NH2	Non-Toxic	–
Ac-DPHRLLQQLALSGNLIKEAVRRLHSR-NH2	Non-Toxic	–
Ac-DPHRLAQQLVLSANLIKEAVARLHSR-NH2	Non-Toxic	–
Ac-DPHRLLQQLVLSGNLIKEAVARLHSR-NH2	Non-Toxic	inhibition [2]: Active; inhibition [3]: Active; inhibition [4]: Active
Ac-DPHRLLQQLVLSGNLIAEAVRRLHSR-NH2	Non-Toxic	–
Ac-DPHRLLQQLVLSGNLIKEAVRRLHSR-NH2	Non-Toxic	inhibition [2]: Active
Ac-DPHRLLQQLVLAGNLIKEAVRRLHSR-NH2	Non-Toxic	–
Ac-DPHRLLQQLVLSGNAIKEAVRRLHSR-NH2	Non-Toxic	–
Ac-DPHRLLQQLVLSGNLIKEAVRALHSR-NH2	Non-Toxic	–
Ac-APHRLLQQLVLSGNLIKEAVRRLHSR-NH2	Non-Toxic	–
Ac-DPHRLLQQLVLSGALIKEAVRRLHSR-NH2	Non-Toxic	–
